Laboratory results reported in ChEMBL document CHEMBL1133559, “4-Aryl-2,4-dioxobutanoic acid inhibitors of HIV-1 integrase and viral replication in cells” (J Med Chem, 2000).
Values joined by “and” are separate entries in the source; they are usually repeats but may differ in a detail not shown here. Equal values may be shown once.

How the values were obtained:
[1] = tested on: Human immunodeficiency virus 1; assay: In vitro inhibition of (HIV-1 IIIB) replication.; format: functional; conditions: for IC95: Human immunodeficiency virus 1, read-out: CIC95
[2] = target: T1, Human immunodeficiency virus type 1 integrase (Human immunodeficiency virus 1, UniProt Q7ZJM1)
Description: Inhibition of recombinant HIV-1 Integrase in strand transfer enzyme assay.

[3] = target: T1, Human immunodeficiency virus type 1 integrase; assay: Inhibitory activity was determined against recombinant HIV-1 Integrase (0.1 uM) in strand transfer enzyme assay

T1 sequence (Q7ZJM1 whole entry): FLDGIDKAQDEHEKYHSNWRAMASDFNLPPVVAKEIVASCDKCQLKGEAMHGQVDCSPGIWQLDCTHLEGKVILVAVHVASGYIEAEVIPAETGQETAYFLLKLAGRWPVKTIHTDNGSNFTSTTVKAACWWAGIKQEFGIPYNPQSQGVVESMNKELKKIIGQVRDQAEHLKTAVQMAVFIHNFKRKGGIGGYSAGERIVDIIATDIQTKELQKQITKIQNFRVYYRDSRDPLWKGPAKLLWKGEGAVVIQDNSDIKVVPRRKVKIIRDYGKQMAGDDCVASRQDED

Structure (SMILES) | IC95 [1] [nM] | IC50 [2] | CIC95 [1] [µM] | IC50 [3] [nM]
O=C(O)C(=O)CC(=O)c1csc(Cc2ccccc2)c1 | 2500 | 160 nM and 100 nM | – | –
O=C(O)C(=O)CC(=O)c1cccc(Cc2ccc(Cl)cc2)c1 | 25000 | 1000 nM and 500 nM | – | –
O=C(O)C(=O)CC(=O)c1cccc(Cc2cccc(F)c2)c1 | 2080 | 250 nM | – | –
O=C(O)C(=O)CC(=O)c1cccc(Cc2ccccc2F)c1 | 520 | < 100 nM | – | –
O=C(O)C(=O)CC(=O)c1cccc(Cc2cccc(Cl)c2)c1 | 940 | < 100 nM | – | –
COc1ccc(Cc2ccccc2)cc1C(=O)CC(=O)C(=O)O | 620 | < 100 nM | – | –
O=C(O)C(=O)CC(=O)c1ccn(Cc2ccccc2)c1 | 3000 | 500 nM and 600 nM | – | –
COc1ccc(C(=O)CC(=O)C(=O)O)cc1Cc1ccccc1 | 1830 | 150 nM | – | –
O=C(O)C(=O)CC(=O)c1cccc(Cc2ccc(F)cc2)c1 | 690 | < 100 nM | – | –
O=C(O)C(=O)CC(=O)c1ccccc1Cc1ccccc1 | > 50000 | 5670 nM | – | –
COc1cc(Cc2ccccc2)cc(C(=O)CC(=O)C(=O)O)c1 | 2080 | 140 nM | – | –
CCOc1ccc(Cc2ccccc2)cc1C(=O)CC(=O)C(=O)O | 150 | < 100 nM | 0.25 | –
O=C(O)C(=O)CC(=O)c1cccc(Cc2ccccc2)c1 | 1110 | < 100 nM | – | –
O=C(O)C(=O)CC(=O)c1cccn1Cc1ccccc1 | 41600 | 220 nM | – | –
CC(C)Oc1ccc(Cc2ccccc2)cc1C(=O)CC(=O)C(=O)O | 100 | – | – | < 100
O=C(O)C(=O)CC(=O)c1cccc(Cc2ccccc2Cl)c1 | 620 | < 100 nM | – | –
O=C(O)C(=O)CC(=O)c1ccc(Cc2ccccc2)s1 | 12500 | 500 nM | – | –
O=C(O)C(=O)CC(=O)c1ccsc1Cc1ccccc1 | 25000 | 180 nM | – | –
O=C(O)C(=O)CC(=O)c1cccn1Cc1ccc(F)cc1 | 9600 | – | – | –
CC(C)(C)NC(=O)[C@@H]1CN(Cc2cccnc2)CCN1C[C@@H](O)C[C@@H](Cc1ccccc1)C(=O)N[C@H]1c2ccccc2C[C@H]1O [INDINAVIR] | 55 | – | – | –
